Reference: patent US20160082105A1, “Antibody Buffering of a Ligand in Vivo” (ARROWSMITH TECHNOLOGIES CORPORATION, priority 2004, published 2016)
Like-named read-outs stand apart in the source and are kept apart here.

Tests used:
[1] = Description: (§1) Samples were prepared for injection: 104 pmol anti-Ox antibody and 52 pmol Ox; 104 pmol of D1.3 control antibody and 52 pmol Ox; and 52 pmol Ox alone. Each sample was diluted to 10 μl with sterile PBS. The samples were warmed to 37° C., and then infused over 1 minute through the intraventricular or cisternal cannula in Sprague-Dawley rats. The end of the infusion was designated as time zero (0). At various timepoints, 10 μl of CSF was withdrawn. For one set of rats, the 10 μl CSF was counted directly by placing it into 5 ml of Scintiverse II and counting in a Beckman LS6500 Scintillation Counter. For another set of rats, the 10 μl CSF was diluted into 100 μl ice cold PBS and used in bound vs. free Ox experiments described below.
The rat anti-mouse kappa antibody 187.1 (obtained from American Type Culture Collection (ATCC), Manassas, Va.) (Yelton et al., Hybridoma 1:5-11 (1981)) was isolated from spent culture medium and purified by passage over a Protein A-Sepharose affinity column. Ten grams of CNBr-activated Sepharose 4 Fast Flow (Amersham Biosciences) were washed and coupled with 187.1 according to manufacturer's protocol. Two mg 187.1 per 10 g of swelled resin were used.
During the antibody buffering experiments, the CSF plus ice cold PBS sample were loaded onto the 187.1 column immediately after the dilution. Application to the column of 3 ml of PBS in 0.5 ml increments was followed by application of 3 ml of 0.2 M glycine (pH 2.5) in 0.5 ml increments. All the PBS fractions and all the glycine fractions were collected separately for each timepoint and dried down in the SpeedVac. The residue was resuspended in 150 μl PBS and then transferred to a scintillation vial with 5 ml Scintiverse II for counting.
(§2) Samples of NQ11/7.12 and Ox were prepared and infused into the cisternal cannula of Sprague-Dawley rats from Charles River Laboratories as described above for the antibody buffering protocol. Ten μl of CSF was taken from the cisterna magna at time 1, 10, 20, 30, 60, 90 and 120 minutes. The 10 μl CSF samples were either counted directly or diluted into 100 μl ice cold PBS and loaded onto a 187.1 column to separate bound and free Ox. At 24 hours and at 48 hours following the first administration, 52 pmol Ox in 10 μl total volume (diluted with sterile PBS) was infused over 1 minute through the cisterna magna cannula. Timepoints were again taken and analyzed as above.
The principle of chemical equilibrium predicts that the Ox in the CSF should partition between free and antibody-bound forms, and that the free pool should be constantly replenished, staying at a concentration near the antibody's Kd. The Ox in the CSF samples from another set of rats was separated into bound and free forms by passage over an affinity column. […] Antibody-Ox complexes bound to the immobilized rat anti-mouse kappa antibody while free Ox eluted from the column with the PBS wash (free Ox fraction).

[2] = Antibody buffering in plasma: total Ox after jugular infusion; type: in vivo, rat; conditions: for t1/2 of Ox (FIG. 6): 5 animals per point
Description: Timepoints were again taken and analyzed as above.
To determine its pharmacokinetic behavior, tritiated Ox was infused into a rat through a jugular cannula, and elimination of Ox was followed through blood sampling, separation of the plasma by centrifugation, and scintillation counting of the plasma.

[3] = remark: listed apart in the source
Description: Male Sprague-Dawley rats (300 g) were obtained from Zivic Laboratories, Inc. (Zelienople, Pa.). Each rat underwent surgery to place a cannula in the right lateral ventricle for injections and a second cannula in the cisterna magna for cerebral spinal fluid (CSF) sampling. Briefly, the rat was anesthetized with 2.5% isoflurane and fixed in a stereotaxic device. Normal body temperature was maintained through a heating pad. A linear midline incision exposed the frontal, parietal, and occipital bones. The lateral ventricle was located using the coordinates (1.8 mm posterior, 3.8 mm lateral, and 4 mm ventral from bregma) obtained from a stereotaxic atlas of the rat (Paxinos et al. The Rat Brain in Stereotaxic Coordinates (Academic Press 1998)). A hole was drilled through the skull, a cannula was inserted, and it was fixed to the skull using VetBond (3M, Minneapolis, Minn.) and dental cement. […] The cannula was inserted to a depth of 2 mm below the bottom of the skull and fixed with VetBond and dental cement. Screw-capped cannula dummy wires were inserted into the cannula guides to maintain a closed system. Rats were allowed to recover for at least 24 hours before ventricular injection.
For experiments for which injections and withdrawals of CSF were done via the same site in the cisterna magna (CM), male Sprague-Dawley rats (250 g) were obtained from Charles River Laboratories (Wilmington, Mass.). […] Rats were allowed to rest no more than three days after arrival prior to experimentation to reduce the risk of cannula blockage.
as §1, §2
To determine the pharmacokinetic behavior of Ox in the CSF, tritiated Ox was infused into a rat through its intraventricular cannula, and elimination of Ox was followed through CSF sampling from the cisterna magna (CM) cannula. Sampling was done from the cisterna magna because it is the largest CSF compartment. Its location between the cerebellum and the upper brain stem and its large size make it relatively easy to access CSF for sampling and scintillation counting (van den Berg et al., J. Neurosci. Methods 116:99-107 (2002)).

[4] = Ox administered alone or with D1.3
[5] = Ox alone re-administered at 24 hours and 48 hours after a single NQ11/7.12 + Ox cisternal infusion
[6] = Ox with D1.3, biphasic elimination

## O=C(O)CCCNC=C1N=C(c2ccccc2)OC1=O [Ox, 2-phenyl-oxazol-5-one-γ-amino butyrate]
[1]; [4]
  decrease of free Ox concentration in CSF in an hour: 500 fold
  free Ox elimination half-life in CSF: 0.61 min
  initial free Ox concentration in CSF: 1.4 mM
[1]; Ox administered with NQ11/7.12
  decrease of free Ox concentration in CSF over time: less than 10 fold
  free Ox concentration in CSF after the decrease: approximately 6 nM
  free Ox elimination half-life in CSF: 1.55 min
  initial free Ox concentration in CSF: 6e-05 mM
[1]; [5]
  free Ox elimination in CSF, long term buffering: slower elimination profile than Ox administered with D1.3
[2]; NQ11/7.12 vs D1.3
  increase in Ox half-life in plasma with anti-Ox antibody: seventeen-fold
[2]; Ox administered with NQ11/7.12, jugular vein cannula
  t1/2 of Ox (FIG. 6): 19.7 min
[2]; Ox administered with control antibody D1.3, jugular vein cannula
  t1/2 of Ox (FIG. 6): 1.2 min
[2]; Ox alone re-administered at 24 hours and 48 hours after a single NQ11/7.12 + Ox infusion
  total Ox pharmacokinetic lifetime in plasma, long term buffering: only small changes
[2]; Ox alone, jugular infusion
  Ox elimination half-life from plasma: 1.2 min
[2]; Ox infused with NQ11/7.12 or D1.3, rats
  adverse effects in the animal subjects: No adverse effects were noted
[2]; [6]
  Ox elimination half-life from plasma, major (fast) phase: 1.2 ± 0.2 min
  Ox elimination half-life from plasma, smaller (slow) phase: 10 ± 2 min
[2]; Ox with twice the molar amount of NQ11/7.12
  Ox elimination half-life from plasma: 20 ± 2 min
[2]; rat, in vivo
  Ox concentration in the cellular fraction of blood, of the total Ox concentration in the plasma: 1-2%
[3]; Ox alone (no NQ11/7.12), intraventricular infusion, cisternal CSF sampling
  Ox elimination half-life from the cisterna magna: 1.2 min
[3]; [5]
  total Ox pharmacokinetic lifetime in CSF, long term buffering: kinetic profile between the profile observed when Ox was initially administered with NQ11/7.12 and the profile of Ox when administered with D1.3
[3]; Ox co-administered with control antibody D1.3, cisternal infusion
  Ox elimination half-life from CSF: 1.0 min
[3]; Ox co-administered with twice the molar amount of NQ11/7.12, cisternal infusion
  Ox elimination half-life from CSF: 10 min
[3]; Ox with twice the molar amount of NQ11/7.12, intraventricular infusion
  time of peak Ox concentration in the cisterna magna: around 5 minutes
[3]; Ox without antibody buffer, intraventricular infusion
  peak Ox concentration in the cisterna magna: never attained a peak concentration
[3]; cisternal infusion
  increase in Ox half-life in CSF, NQ11/7.12 vs D1.3: ten-fold
